Here are results for 22 molecules from patent US11905281B2 (Amgen Inc., priority 2017, dated 2024).

Like-named read-outs stand apart in the source and are kept apart here.

In experiment [1] the target is T1, GDP-bound KRAS protein (aa 1-169), containing both G12C and C118A amino acid substitutions (Homo sapiens, UniProt P01116, C118A/G12C). The experiment is described as follows: Coupled Nucleotide Exchange Assay (Table 15 conditions: 2 hours pre-incubation). The experiment is classed as biochemical. The note with it: 2 hours compound pre-incubation (Table 15 conditions). The method, then:
For compounds in Table 15, the following assay conditions were employed:
Following compound pre-incubation, purified SOS protein (aa 564-1049) and GTP (Roche 10106399001) were added to the assay wells and incubated for an additional hour. […] The assay plates were then read on a PerkinElmer EnVision Multilabel Reader, using AlphaScreen® technology, and data were analyzed using a 4-parameter logistic model to calculate IC50 values.

Experiment [2] has as its system Phosphorylation of ERK1/2 in MIA PaCa-2 cells. The experiment is described as follows: Phospho-ERK1/2 MSD Assay, MIA PaCa-2 (Table 16 conditions: 2 hours compound treatment). The experiment is classed as cell-based. The following applies: 10 ng/mL EGF for 10 min, read-out: p-ERK IC50 (MIA PaCa-2). The method, then:
(§1) For compounds in Table 16, the following assay conditions were employed:
Sixteen hours prior to compound treatment, MIA PaCa-2 or A549 cells were seeded in 96-well cell culture plates at a density of 25,000 cells/well and incubated at 37° C., 5% CO2. A compound dose-response titration was diluted in growth media, added to appropriate wells of a cell culture plate, and then incubated at 37° C., 5% CO2 for 2 hours. […] Phosphorylation of ERK1/2 in compound-treated lysates was assayed using Phospho-ERK1/2 Whole Cell Lysate kits (Meso Scale Discovery K151DWD) according to the manufacturer's protocol. Assay plates were read on a Meso Scale Discovery Sector Imager 6000, and data were analyzed using a 4-parameter logistic model to calculate IC50 values.

For experiment [3], the target named is T1, GDP-bound KRAS protein (aa 1-169), containing both G12C and C118A amino acid substitutions. Briefly: Coupled Nucleotide Exchange Assay (Table 16 conditions: 5 min pre-incubation). The experiment is classed as biochemical. The note with it: 5 min compound pre-incubation; SOS-mediated nucleotide exchange, AlphaScreen. The method, then: as §1
The assay plates were then read on a PerkinElmer EnVision Multilabel Reader, using AlphaScreen® technology, and data were analyzed using a 4-parameter logistic model to calculate IC50 values.
Background: Alpha assays give light when donor and acceptor beads are brought close together.

Where [4] appears, read: Homo sapiens, MIA PaCa-2, MIA PaCa-2 cells.

T1 sequence (P01116 1-169 isoform P01116-2 G12C/C118A): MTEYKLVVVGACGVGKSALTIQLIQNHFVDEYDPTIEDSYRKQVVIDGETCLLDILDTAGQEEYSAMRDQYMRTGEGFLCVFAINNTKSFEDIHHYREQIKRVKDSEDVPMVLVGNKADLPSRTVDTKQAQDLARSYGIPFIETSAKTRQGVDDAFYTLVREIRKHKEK

Turning to `C=CC(=O)N1CCN(c2snc3nc(-c4cc(OC)cc5ccccc45)c(Cl)cc23)C(C)C1` (racemic) [Example 2-4, 1-(4-(5-chloro-6-(3-methoxy-1-naphthalenyl)[1,2]thiazolo[3,4-b]pyridin-3-yl)-3-methyl-1-piperazinyl)-2-propen-1-one], the “Coupled exchange IC50” value in experiment [1] is above 250000 nM.
On to `C=CC(=O)N1CCN(c2nc(=O)n(-c3ccccc3C(C)C)c3cc(-c4c(O)cccc4F)c(Cl)cc23)[C@@H](C)C1` (single isomer, unassigned) [Example 8-3-2], for which the “Coupled exchange IC50” value in experiment [1] worked out at 340 nM.
Turning to `C=C(CBr)C(=O)N1CCN(c2snc3c(F)c(-c4cc(O)cc5ccccc45)c(Cl)cc23)CC1` (single isomer, unassigned) [Example 18-2, 2-(bromomethyl)-1-(4-(5-chloro-7-fluoro-6-(3-hydroxy-1-naphthalenyl)-2,1-benzothiazol-3-yl)-1-piperazinyl)-2-propen-1-one], in experiment [1], the “Coupled exchange IC50” value is 760 nM.
As to `C=C(CO)C(=O)N1CCN(c2snc3c(F)c(-c4cc(O)cc5ccccc45)c(Cl)cc23)CC1` (single isomer, unassigned) [Example 18-3, 1-(4-(5-chloro-7-fluoro-6-(3-hydroxy-1-naphthalenyl)-2,1-benzothiazol-3-yl)-1-piperazinyl)-2-(hydroxymethyl)-2-propen-1-one], in experiment [1], the “Coupled exchange IC50” value stood at 24600 nM.
Consider `C=CC(=O)N1CCN(c2snc3c(F)c(-c4cc(O)cc5ccccc45)c(Cl)cc23)[C@@H](C)C1` [Example 1-19-1, 1-((3S)-4-(5-chloro-7-fluoro-6-(3-hydroxy-1-naphthalenyl)-2,1-benzothiazol-3-yl)-3-methyl-1-piperazinyl)-2-propen-1-one], for which the “Coupled exchange IC50” value in experiment [1] amounted to 115 nM.
For the molecule `C=CC(=O)N1CCN(c2nc(=O)n(-c3ccccc3C(C)C)c3cc(-c4c(O)cccc4F)c(Cl)cc23)[C@@H](C)C1` [Example 8-3, 6-chloro-7-(2-fluoro-6-hydroxyphenyl)-4-((2S)-2-methyl-4-(2-propenoyl)-1-piperazinyl)-1-(2-(2-propanyl)phenyl)-2(1H)-quinazolinone], the “Coupled exchange IC50” value in experiment [1] worked out at 283 nM.
As for `C=CC(=O)N1CCN(c2nc(=O)n(-c3ccccc3C(C)C)c3cc(-c4c(O)cccc4F)c(Cl)cc23)[C@@H](C)C1` [Example 8-3-1, 6-chloro-7-(2-fluoro-6-hydroxy-phenyl)-4-((2S)-2-methyl-4-(2-propenoyl)-1-piperazinyl)-1-(2-(2-propanyl)-phenyl)-2(1H)-quinazolinone], the “Coupled exchange IC50” value in experiment [1] was found to be 282 nM.
As for `C=CC(=O)N1CCN(c2nc(=O)n(-c3c(C)ccnc3C(C)C)c3nc(-c4ccccc4F)c(Cl)cc23)[C@@H](C)C1` [Example 40-2, 6-chloro-7-(2-fluoro-phenyl)-1-(4-methyl-2-(2-propanyl)-3-pyridinyl)-4-((2S)-2-methyl-4-(2-propenoyl)-1-piperazinyl)pyrido-[2,3-d]pyrimidin-2(1H)-one], the figures for the half-inhibitory concentration (IC50) in experiment [2] (MIA PaCa-2 cells) and in experiment [3] were 321 nM and 597 nM, respectively.
With `C=CC(=O)N1CCN(c2nc(=O)n(-c3c(C)ccnc3C3CC3)c3nc(-c4c(O)cccc4F)c(F)cc23)[C@@H](C)C1` [Example 42, 1-(2-Cyclopropyl-4-methyl-3-pyridinyl)-6-fluoro-7-(2-fluoro-6-hydroxyphenyl)-4-((2S)-2-methyl-4-(2-propenoyl)-1-piperazinyl)pyrido[2,3-d]pyrimidin-2(1H)-one], the half-maximal inhibitory concentration (IC50) (as a rule, the concentration that inhibits the measured activity by half) in experiment [2] (MIA PaCa-2 cells) is 362 nM; in experiment [3], 335 nM.
The corresponding values for `C=CC(=O)N1CCN(c2nc(=O)n(-c3c(C)ccnc3C3CC3)c3nc(-c4c(O)cccc4F)c(F)cc23)[C@@H](C)C1` [Example 42-1, 1-(2-cyclopropyl-4-methyl-3-pyridinyl)-6-fluoro-7-(2-fluoro-6-hydroxyphenyl)-4-((2S)-2-methyl-4-(2-propenoyl)-1-piperazinyl)pyrido-[2,3-d]pyrimidin-2(1H)-one] are 103 nM and 150 nM.
As for `C=CC(=O)N1CCN(c2nc(=O)n(-c3c(C(C)C)ncnc3C(C)C)c3nc(-c4ccccc4F)c(Cl)cc23)[C@@H](C)C1` [Example 43, 6-Chloro-1-(4,6-di(2-propanyl)-5-pyrimidinyl)-7-(2-fluorophenyl)-4-((2S)-2-methyl-4-(2-propenoyl)-1-piperazinyl)pyrido[2,3-d]pyrimidin-2(1H)-one], the IC50 in experiment [2] (setting [4]) is 34 nM; in experiment [3], 38 nM.
For the molecule `C=CC(=O)N1CCN(c2nc(=O)n(-c3c(C)ccnc3C3CC3)c3nc(-c4c(O)cccc4F)c(Cl)cc23)[C@@H](C)C1` [Example 44-1], the half-maximal inhibitory concentration (IC50) in experiment [2] (MIA PaCa-2 cells) turned out to be 25 nM; in experiment [3], 33 nM.
Turning to `C=CC(=O)N1CCN(c2nc(=O)n(-c3c(C)ccnc3C3CC3)c3nc(-c4c(O)cccc4F)c(Cl)cc23)[C@@H](C)C1` [Example 44-2], the IC50 in experiment [2] (MIA PaCa-2 cells) amounted to 138 nM; in experiment [3], 208 nM.
In the case of `C=CC(=O)N1CCN(c2nc(=O)n(-c3c(C)ccnc3C3CC3)c3nc(-c4c(O)cccc4F)c(Cl)cc23)[C@@H](C)C1` [Example 44], the half-maximal inhibitory concentration (IC50) in experiment [2] (MIA PaCa-2 cells) worked out at 65 nM; in experiment [3], 103 nM.
Turning to `C=CC(=O)N1CCN(c2nc(=O)n(-c3c(C)ccnc3C3CC3)c3nc(-c4ccccc4F)c(Cl)cc23)[C@@H](C)C1` [Example 45, 6-Chloro-1-(2-cyclopropyl-4-methyl-3-pyridinyl)-7-(2-fluorophenyl)-4-((2A)-2-methyl-4-(2-propenoyl)-1-piperazinyl)pyrido[2,3-d]pyrimidin-2(1H)-one], the results for the concentration for half-maximal inhibition (IC50) in experiment [2] (MIA PaCa-2 cells) and in experiment [3] were 62 nM and 319 nM, respectively.
Take `C=CC(=O)N1CCN(c2nc(=O)n(-c3c(C)ccnc3CC)c3nc(-c4ccccc4F)c(Cl)cc23)[C@@H](C)C1` [Example 46, 6-Chloro-1-(2-ethyl-4-methyl-3-pyridinyl)-7-(2-fluorophenyl)-4-((2S)-2-methyl-4-(2-propenoyl)-1-piperazinyl)pyrido[2,3-d]pyrimidin-2(1H)-one]: the 50% inhibitory concentration (IC50) was 169 nM in experiment [2] (MIA PaCa-2 cells) and 493 nM in experiment [3].
With `C=CC(=O)N1CCN(c2nc(=O)n(-c3c(C)ccnc3CC)c3nc(-c4ccccc4F)c(Cl)cc23)[C@@H](C)C1` [Example 46-1, 6-chloro-1-(2-ethyl-4-methyl-3-pyridinyl)-7-(2-fluorophenyl)-4-((2S)-2-methyl-4-(2-propenoyl)-1-piperazinyl)pyrido-[2,3-d]pyrimidin-2(1H)-one], the IC50 in experiment [2] (MIA PaCa-2 cells) amounted to 126 nM; in experiment [3] it was 170 nM.
For `C=CC(=O)N1CCN(c2nc(=O)n(-c3c(C)ccnc3CC)c3nc(-c4ccccc4F)c(Cl)cc23)[C@@H](C)C1` [Example 46-2, 6-chloro-1-(2-ethyl-4-methyl-3-pyridinyl)-7-(2-fluorophenyl)-4-((2S)-2-methyl-4-(2-propenoyl)-1-piperazinyl)pyrido-[2,3-d]pyrimidin-2(1H)-one], the half-maximal inhibitory concentration (IC50) in experiment [2] (MIA PaCa-2 cells) turned out to be 552 nM; in experiment [3] it was 971 nM.
For `C=CC(=O)N1CCN(c2nc(=O)n(-c3c(CC)ncnc3CC)c3nc(-c4ccccc4F)c(Cl)cc23)[C@@H](C)C1` [Example 47, 6-Chloro-1-(4,6-diethyl-5-pyrimidinyl)-7-(2-fluorophenyl)-4-((2S)-2-methyl-4-(2-propenoyl)-1-piperazinyl)pyrido[2,3-d]pyrimidin-2(1H)-one], the IC50 turned out to be 152 nM in experiment [2] (setting [4]) and 409 nM in experiment [3].
In the case of `C=CC(=O)N1CCN(c2nc(=O)n(-c3ccccc3C(C)(C)C)c3nc(-c4c(O)cccc4F)c(Cl)cc23)[C@@H](C)C1` [Example 49, 6-Chloro-7-(2-fluoro-6-hydroxyphenyl)-1-(2-(2-methyl-2-propanyl)phenyl)-4-((2S)-2-methyl-4-(2-propenoyl)-1-piperazinyl)pyrido[2,3-d]pyrimidin-2(1H)-one], the IC50 in experiment [2] (MIA PaCa-2 cells) was determined as 154 nM; in experiment [3], 177 nM.
For `C=CC(=O)N1CCN(c2nc(=O)n(-c3ccccc3C(C)C)c3nc(-c4ccccc4F)c(C)nc23)[C@@H](C)C1` [Example 51, 7-(2-Fluorophenyl)-6-methyl-4-((2A)-2-methyl-4-(2-propenoyl)-1-piperazinyl)-1-(2-(2-propanyl)phenyl)-2(1H)-pteridinone], in that order: 440 nM and 538 nM.
As to `C=CC(=O)N1CCN(c2nc(=O)n(-c3c(C)cnn3C(C)C)c3nc(-c4ccccc4F)c(Cl)cc23)[C@@H](C)C1` [Example 53, 6-Chloro-7-(2-fluorophenyl)-1-(4-methyl-1-(2-propanyl)-1H-pyrazol-5-yl)-4-((2S)-2-methyl-4-(2-propenoyl)-1-piperazinyl)pyrido[2,3-d]pyrimidin-2(1H)-one], the half-inhibitory concentration (IC50) stood at 71 nM in experiment [2] (MIA PaCa-2 cells) and 125 nM in experiment [3].
